Experiments:
Assay type in all cases: in vivo
[1] = tested on: green peach aphid (Myzus persicae); test: Myzus persicae oral test; conditions: 120 h, application rate 4 ppm, after 5 days
In short: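 Acetone stock (1 pbw compound/100 pbw solvent) diluted in water; mixed with sugar-supplemented IPL41 medium; parafilm-sealed; mixed aphid population sucks through film; mortality % read at 5 d.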

[2] = tested on: larvae of the banded cucumber beetle (Diabrotica balteata); test: Diabrotica balteata spray test; conditions: 168 h, after 7 days, read-out: activity (efficacy: seedlings grown); for pest or weed control at 500 g/ha: application rate 500 g/ha (=160 pg/well); for pest or weed control at 100 g/ha: application rate 100 g/ha (=32 pg/well)
In short: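 Wheat seedlings, germinated 1 day on agar (5 seeds/well), sprayed with active compound in acetone/DMF diluted in water containing 1000 ppm emulsifier, then infested with 10-20 D. balteata larvae. Efficacy (%) scored after 7 days: 100% = seedlings grown as untreated uninfested control, 0% = no seedlings grown.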

[3] = tested on: Rhipicephalus microplus larvae (strain Parkhurst, resistant against synthetic pyrethroids); test: Rhipicephalus (Boophilus) microplus in-vitro contact test, larval cattle tick; conditions: after 48 hours, read-out: activity (efficacy: larvae dead or moribund); for pest or weed control at 100 g/ha: application rate 1 pg/cm^2 (=100 g/ha); for pest or weed control at 500 g/ha: application rate 5 pg/cm^2 (=500 g/ha)
In short: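 Acetone solutions coated onto inner walls of glass tubes by rotation (900 ppm giving 5 μg/cm^2); after evaporation, 20-50 larvae added per tube and held at 27° C., 85% relative humidity. Efficacy read after 48 h from negative geotactic behaviour; 100% = all larvae dead or moribund.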

[4] = tested on: fall armyworm larvae (Spodoptera frugiperda); test: Spodoptera frugiperda spray test; conditions: 168 h, read-out: activity (mortality)
In short: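 Compound in acetone/DMF, diluted in water with 1000 ppm alkylarylpolyglycol ether emulsifier, sprayed on maize leaf sections. Dried leaves infested with fall armyworm larvae; % mortality after 7 days (100% = all killed, 0% = none).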

[5] = tested on: adult unfed cat fleas (Ctenocephalides felis); test: Ctenocephalides felis oral test; conditions: 48 h, read-out: activity (mortality)
Experimental: Ctenocephalides felis—Oral Test
Solvent: dimethyl sulfoxide
To produce a suitable preparation of active compound, 10 mg of active compound are dissolved in 0.5 mL solvent, and the concentrate is diluted with cattle blood to the desired concentration.
Approximately 20 adult unfed cat fleas (Ctenocephalides felis) are placed in flea chambers. The blood chamber, sealed with parafilm on the bottom, are filled with cattle blood supplied with compound solution and placed on the gauze covered top of the flea chamber, so that the fleas are able to suck the blood. The blood chamber is heated to 37° C. whereas the flea chamber is kept at room temperature.
After 2 days mortality in % is determined. 100% means all the fleas have been killed; 0% means none of the fleas have been killed.

[6] = tested on: adult engorged female ticks (Rhipicephalus microplus); test: Rhipicephalus (Boophilus) microplus injection test; conditions: 168 h, egg deposition after 7 days, read-out: activity (efficacy: infertile eggs); for pest or weed control at 4 pg: application rate 4 pg/animal; for pest or weed control at 0.02 mg: application rate 20 μg/animal
In short: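 Efficacy is scored from egg fertility, with 100% meaning every egg infertile and 0% every egg fertile. Five engorged females per test received 1 μL DMSO solution abdominally. Eggs of unclear fertility were kept until hatching, about 42 days.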

[7] = tested on: green peach aphid (Myzus persicae); test: Myzus persicae spray test; conditions: 120 h, after 5 days; for mortality at 100 g/ha: application rate 100 g/ha; for mortality at 500 g/ha: application rate 500 g/ha
Experimental: Myzus persicae—Spray Test
Solvent: 78.0 parts by weight acetone • 1.5 parts by weight dimethylformamide
(§1) Emulsifier: alkylarylpolyglycol ether
(§2) To produce a suitable preparation of active compound, 1 part by weight of active compound is mixed with the stated amount of solvents and is diluted with water, containing an emulsifier concentration of 1000 ppm, to the desired concentration. Further test concentrations are prepared by dilution with emulsifier containing water.
Chinese cabbage (Brassica pekinensis) leaf disks infected with all instars of the green peach aphid (Myzus persicae), are sprayed with a preparation of the active ingredient of the desired concentration.
After 5 days mortality in % is determined. 100% means all aphids have been killed and 0% means none of the aphids have been killed.

[8] = tested on: larvae of the southern green stink bug (Nezara viridula); test: Nezara viridula spray test; conditions: 96 h, after 4 days; for mortality at 100 g/ha: application rate 100 g/ha; for mortality at 500 g/ha: application rate 500 g/ha
Experimental: Nezara viridula—Spray Test
Solvent: 78.0 parts by weight of acetone • • 1.5 parts by weight of dimethylformamide
as §1
as §2, with “solvent,” for “solvents”, “and the concentrate” for “and”
Barley plants (Hordeum vulgare) infested with larvae of the southern green stink bug (Nezara viridula) are sprayed with a test solution containing the desired concentration of the active ingredient.
After 4 days mortality in % is determined. 100% means all the stink bugs have been killed; 0% means none of the stink bugs have been killed.

[9] = tested on: Aedes aegypti strain MONHEIM; test: Aedes aegypti test (AEDSAE surface treatment & contact assay); conditions: 24 hours after contact, read-out: efficacy (mortality)
Experimental: Aedes aegypti Test (AEDSAE Surface Treatment & Contact Assay)
Solvent: Aceton+2000 ppm rapeseed oil methyl ester (RME)
In order to produce a sufficient, active ingredient containing solution it is necessary to solve the test compound in the solvent-mix (acetone at 2 mg/ml/RME 2000 ppm). This solution is pipetted onto a glazed tile and after evaporation of the acetone, adult mosquitoes of the species Aedes aegypti strain MONHEIM are placed onto the dried surface. The exposure time is 30 minutes. Mortality in percent (%) is determined 24 hours after contact of the insects to the treated surface. 100% mortality means that all tested insects are dead, whereas 0% means that no insect died.

[10] = tested on: adult brown dog ticks (Rhipicephalus sanguineus); test: Rhipicephalus sanguineus in-vitro contact test, adult brown dog ticks; conditions: after 48 hours, read-out: activity (efficacy: ticks dead or moribund); for pest or weed control at 100 g/ha: application rate 1 pg/cm^2 (=100 g/ha); for pest or weed control at 5 µg/cm2, 500 g/ha: application rate 5 μg/cm^2 (=500 g/ha)
In short: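 Efficacy (%) reflects the fraction of adult ticks dead or moribund after 48 h of contact with a dried acetone film on tube walls at 5 μg/cm^2 (from 900 ppm). Moribund status was assessed by inability to climb away from heat at 45-50° C.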

[11] = tested on: adult cat fleas (Ctenocephalides felis); test: Ctenocephalides felis in-vitro contact test, adult cat flea; conditions: application rate 5 μg/cm^2 (=500 g/ha), after 48 hours, read-out: activity (efficacy: fleas dead or moribund)
Experimental: Ctenocephalides felis—In-Vitro Contact Tests Adult Cat Flea
9 mg compound is solved in 1 mL acetone and diluted with acetone to the desired concentration. 250 μL of the test solution is filled in 25 mL glass test tubes and homogeneously distributed on the inner walls by rotation and tilting on a shaking device (2 h at 30 rpm). With a compound concentration of 900 ppm, an inner surface of 44.7 cm^2 and a homogeneous distribution, a dose of […] is achieved.
After the solvent has evaporated, each test tube is filled with 5-10 adult cat fleas (Ctenocephalides felis), closed with a perforated lid and incubated in a lying position at room temperature and relative humidity. After 48 hours efficacy is determined. The fleas are patted on the ground of the tubes and are incubated on a heating plate at 45-50° C. for at most 5 minutes. Immotile or uncoordinated moving fleas, which are not able to escape the heat by climbing upwards, are marked as dead or moribund.
An efficacy of 100% means all fleas are dead or moribund; 0% means no fleas are dead or moribund.

Row | SMILES | mortality at 4 ppm [1] | pest or weed control at 500 g/ha [2] | pest or weed control at 100 g/ha [3] | pest or weed control at 500 g/ha [3] | mortality at 100 g/ha [4] | mortality at 500 g/ha [4] | mortality at 100 ppm [5] | pest or weed control at 4 pg [6] | pest or weed control at 0.02 mg [6] | mortality at 100 g/ha [7] | mortality at 500 g/ha [7] | mortality at 100 g/ha [8] | mortality at 500 g/ha [8] | pest or weed control at 100 g/ha [2] | mortality at 4 mg/m2 ([9]; surface concentration 4 mg/m^2, exposure 30 minutes) | mortality at 20 mg/m2 ([9]; surface concentration 20 mg/m^2, exposure 30 minutes) | pest or weed control at 100 g/ha [10] | pest or weed control at 5 µg/cm2, 500 g/ha [10] | pest or weed control at 5 µg/cm2 [11]
1 | CCOc1nc([C@H](C)NC(=O)c2cc(Cl)cc(S(C)(=O)=O)c2)n(-c2ccc(C#N)cn2)n1 [I-9] | 100% | 100% | 100% | 100% | 100% | 100% | 100% | 100% | 100% | – | – | – | – | – | – | – | – | – | –
2 | C[C@H](NC(=O)c1cc(C(F)F)cc(S(C)(=O)=O)c1)c1nc(C2CC2)nn1-c1ncc(Cl)cn1 [I-67] | 100% | – | – | – | 100% | – | – | – | – | 90% | 100% | 100% | 100% | 100% | – | – | – | – | –
3 | CC(NC(=O)c1cc(Br)cc(C2(C(F)(F)F)CC2)c1)c1nc(Cl)nn1-c1ncccn1 (stereo not shown) [I-47] | 100% | – | 90% | 90% | 100% | – | 80% | 100% | 100% | – | – | – | – | 100% | 80 to 100% | 80 to 100% | – | – | –
4 | CC(NC(=O)c1cc(Cl)cc(S(C)(=O)=O)c1)c1nc(I)nn1-c1ncccn1 (stereo not shown) [I-41] | 100% | – | – | – | – | – | – | – | – | 100% | – | 100% | – | 100% | – | – | – | – | –
5 | C[C@H](NC(=O)c1cc(Br)cc(C2CC2)c1)c1ncnn1-c1ccc(C#N)cn1 [II-59] | 100% | – | 100% | 100% | 100% | – | – | 80% | – | – | – | – | – | 100% | – | – | 100% | 100% | 100%
6 | COc1nc([C@H](C)NC(=O)c2cc(Cl)cc(S(=O)(=O)C(F)(F)F)c2)n(-c2ccc(Cl)cn2)n1 [I-52] | – | – | – | – | 83% | – | – | – | – | – | – | – | – | – | – | – | – | – | 90%
7 | C[C@H](NC(=O)c1cc(F)cc(S(C)(=O)=O)c1)c1nc(C2CC2)nn1-c1ncc(Cl)cn1 [I-66] | 100% | – | – | – | 100% | – | – | – | – | 100% | 100% | 100% | 100% | 100% | – | – | – | – | –
8 | CC(NC(=O)c1cc(OC(F)(F)F)cc(C2CC2)c1)c1nc(I)nn1-c1ncccn1 (stereo not shown) [I-43] | 100% | – | 100% | 100% | 100% | – | – | – | – | 100% | – | 100% | – | 100% | – | – | 100% | 100% | –
9 | C[C@H](NC(=O)c1cc(F)cc(S(C)(=O)=O)c1)c1nc(C2CC2)nn1-c1ccc(C#N)cn1 [I-63] | 100% | – | – | – | 100% | – | – | – | – | 90% | – | 100% | – | 100% | – | – | – | – | –
10 | CC(C)c1nc([C@H](C)NC(=O)c2cc(Cl)cc(S(C)(=O)=O)c2)n(-c2ccc(C#N)cn2)n1 [I-16] | 100% | – | 100% | 100% | 100% | – | 100% | 100% | 100% | – | – | – | – | 80% | – | – | 100% | 100% | –
11 | COc1nc([C@H](C)NC(=O)c2cc(OC(F)(F)F)cc(S(=O)(=O)C3CC3)c2)n(-c2ncc(Cl)cn2)n1 [I-91] | – | – | – | – | 100% | – | – | – | – | 90% | – | – | 100% | 100% | – | – | – | – | –
12 | COc1nc([C@H](C)NC(=O)c2cc(C(F)F)cc(S(=O)(=O)C3CC3)c2)n(-c2ccc(Cl)cn2)n1 [I-94] | – | – | – | – | 100% | – | – | – | – | 90% | – | – | 100% | 100% | – | – | – | – | –
13 | COc1nc([C@H](C)NC(=O)c2cc(C(F)F)cc(C3CC3)c2)n(-c2ccc(C#N)cn2)n1 [I-70] | – | – | 100% | 100% | – | – | – | – | – | – | – | – | – | – | – | – | – | 80% | 80%
14 | COc1nc([C@H](C)NC(=O)c2cc(Cl)cc(S(=O)(=O)C3CC3)c2)n(-c2ncc(Cl)cn2)n1 [I-79] | 100% | – | – | – | 100% | – | – | – | – | 90% | – | 90% | 100% | – | – | – | – | – | –
15 | CC(NC(=O)c1cc(Cl)cc(S(C)(=O)=O)c1)c1nc(Br)nn1-c1ccc(Cl)cn1 (stereo not shown) [I-28] | 90% | 100% | 100% | 100% | 100% | 100% | 100% | 100% | 100% | – | – | – | 100% | 100% | – | – | – | – | –

From patent publication US20260206761A1, “HETEROARYL-TRIAZOLE COMPOUNDS AS PESTICIDES” (Bayer Aktiengesellschaft, priority 2019, published 2026)
